Results on three compounds are retold here after US20040034028A1, “4-(biphenylcarbonylamino)piperidine derivatives as mtp inhibitors” (priority 2000, published 2004).

For orientation: melting point means the temperature of the solid-liquid transition.

For data set [1], the target named is T1, microsomal triglyceride transfer protein (MTP) (Mesocricetus auratus, UniProt P55158).
T1 construct: The supernatant containing the soluble MTP is dialysed; from tissue; host or cells: golden hamster liver microsomes
T1 sequence (P55158 19-895): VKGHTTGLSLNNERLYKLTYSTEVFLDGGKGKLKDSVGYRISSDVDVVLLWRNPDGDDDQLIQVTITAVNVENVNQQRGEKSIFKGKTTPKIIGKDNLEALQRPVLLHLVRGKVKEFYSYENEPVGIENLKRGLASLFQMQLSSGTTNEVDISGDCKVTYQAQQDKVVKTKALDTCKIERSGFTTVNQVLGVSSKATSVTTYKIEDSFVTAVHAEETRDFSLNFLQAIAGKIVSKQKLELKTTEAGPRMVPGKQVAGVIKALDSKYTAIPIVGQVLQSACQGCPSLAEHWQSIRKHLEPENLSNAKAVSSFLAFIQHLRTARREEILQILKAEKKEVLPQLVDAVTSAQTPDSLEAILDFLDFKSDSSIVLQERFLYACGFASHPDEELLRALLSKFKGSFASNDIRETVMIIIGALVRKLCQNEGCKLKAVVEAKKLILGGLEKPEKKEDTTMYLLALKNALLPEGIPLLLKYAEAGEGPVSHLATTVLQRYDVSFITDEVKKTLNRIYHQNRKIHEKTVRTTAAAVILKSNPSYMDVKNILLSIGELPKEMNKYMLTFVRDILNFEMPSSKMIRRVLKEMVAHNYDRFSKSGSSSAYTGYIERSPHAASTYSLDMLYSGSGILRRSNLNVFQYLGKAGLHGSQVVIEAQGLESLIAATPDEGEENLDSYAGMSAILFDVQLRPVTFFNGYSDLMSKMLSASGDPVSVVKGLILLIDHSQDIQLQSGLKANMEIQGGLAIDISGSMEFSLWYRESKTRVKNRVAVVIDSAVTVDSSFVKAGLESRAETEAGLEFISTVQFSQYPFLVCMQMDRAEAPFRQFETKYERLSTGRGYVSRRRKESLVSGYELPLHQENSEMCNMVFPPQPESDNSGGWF
The data set is described as follows: Inhibition of the activity of MTP (transfer of labelled triglyceride, SPA). Format: biochemical, golden hamster. Particulars: hamster liver MTP, [3H]-trioleine donor liposomes, biot-LDL acceptor, 18-24 hours at 37° C.; read-out: IC50, concentration which allows a 50% inhibition of MTP. Here is the method:
Analysis of th inhibition of the activity of MTP The inhibition of the activity of microsomal triglyceride transfer protein MTP) was tested using the following protocal.
The inhibition of the activity of MTP with a compound may be quantified by observing the inhibition of the transfer of a labeled triglyceride, from a donor particle to an acceptor particle, in the presence of MTP. The procedure for preparing MTP is based on the method by Wetterau and Zilversmit (Biochem. Biophys. Acta (1986) 875 610). A few grams of golden hamster liver are taken and then rinsed several times in a 250 mM sucrose solution at 0° C. All the following steps proceed at +4° C. A 50% homogenate in 250 mM sucrose is prepared using a Teflon mill and then centrifuged for 10 minutes at 10 000×g at +4° C. The supernatant is then centrifuged at 105 000×g for 75 minutes at +4° C. The supematant is removed and the microsomal pellet is taken up in 3 ml (per gram of starting liver) of 150 mM pH 8.0 Tris/HCl. 1 ml aliquot fractions are stored at −80° C. until use.
After thawing a fraction of microsomes (1 ml), 12 ml of refrigerated 50 mM Tris/HCl, 50 mM KCl, 5 mM MgCl2, pH 7.4 buffers and 1.2 ml of deoxycholate (0.54% in water) are added. After incubating for 30 minutes at +4° C. with gentle agitation, the suspension is centrifuged at 105 000×g for 75 minutes. The supernatant containing the soluble MTP is dialysed against 150 mM Tris/HCl, 40 mM NaCl, 1 mM EDTA, 0.02% sodium azide, pH 7.4 buffer (5 times one litre over 2-3 days). […]
The acceptor particles are biotinylated low-density lipoproteins (biot-LDL). […] After incubating for 18-24 hours at 37° C. the reaction is quenched by adding 100 μl of Amersham SPA (Scintillation Proximity Assay) beads coupled to steptavidin and the radioactivity is counted using a Top Count (Packard) at least one hour later. The inhibition of the transfer of triglycerides by a compound is reflected by a reduction in the radioactivity transferred. The percentage of inhibition for a given compound is determined relative to controls which contain no compounds in the reaction mixture. […]

The subject of data set [2] is secretion of apo B in Hep G2 cells. The data set is described as follows: Inhibition of the secretion of apo B in the Hep G2 human cell line (ELISA). The data set is classed as cell-based. Conditions: HepG2, 24 hours incubation, sandwich ELISA for human apo B, read-out: IC50, concentration which produces a 50% inhibition of the secretion of apo B in the Hep G2 cells. The method, then:
Analysis of the secretion of apo B in the Hep G2 human cell line:
The activity of a compound according to the invention may be evaluated by measuring the inhibition of the secretion of apo B in Hep G2 cells.
The Hep G2 cells (ECACC—number 85011430) are used as a model in the study of the in vitro hepatic secretion of lipoproteins (Dixon J. and Ginsberg H.—J. Lipid. Res.—1993, 34:167-179).
The Hep G2 cells are cultured in a Dulbecco's modified Eagle medium containing 10% foetal calf serum (DMEM and FCS—Gibco) in 96-well plates in an atmosphere of 5% carbon dioxide for 24 hours (about 70% confluence).
The test compounds are dissolved at 2 or 10 mM in dimethyl sulphoxide (DMSO). Serial dilutions (1:3.16) are performed in DMSO and added (1:200—Robot Multim Beckman) to the growth medium (200 microlitres) and finally incubated for 24 hours in the various wells containing the Hep G2 cells.
The 24-hour culture supernatant diluted to 1:5 (phosphate-buffered saline: PBS containing 1% bovine serum albumin) is tested according to a sandwich ELISA method which is specific for human apo B.
The results are expressed in terms of IC50, namely the concentration which produces a 50% inhibition of the secretion of apo B in the Hep G2 cells.

Regarding `Cc1cccc(CN2CCC(NC(=O)c3ccccc3-c3ccc(C(F)(F)F)cc3)CC2)n1` [A-5, 1-[(6-methyl-2-pyridyl)methyl]-4-[(4′-trifluoromethyl-2-biphenyl)carbonylamino]-piperidine], the melting point came to 170 °C. The IC50 in data set [1] came out at 65 nM. In data set [2], the IC50 stood at 3 nM.

Take `O=C(NC1CCN(Cc2ccc3ccccc3n2)CC1)c1ccccc1-c1ccc(C(F)(F)F)cc1` [A-8, 1-(2-quinolylmethyl)-4-[(4′-trifluoromethyl-2-biphenyl)carbonylamino]-piperidine]: the melting point amounted to 210 °C. Moreover, in data set [1], the IC50 was 26 nM. Also, the IC50 in data set [2] was 2 nM.

`Cc1ncccc1CN1CCC(NC(=O)c2ccccc2-c2ccc(C(F)(F)F)cc2)CC1` [A-7, 1-[(2-methyl-3-pyridyl)methyl]-4-[(4′-trifluoromethyl-2-biphenyl)carbonylamino]-piperidine]: the IC50 in data set [1] is 84 nM; in data set [2] it was 74 nM.
